Reference: PubChem BioAssay AID1845215 (Molecular Pharmacology Branch, DTP, NCI, 2023)
Values joined by “and” are separate entries in the source; they are usually repeats but may differ in a detail not shown here. Equal entries are not always repeated. Values belong to the compound of their own block, whether it stands above or below them. Active and inactive are the calls of the source. Rule for the calls: active = viability on the fitted dose curve at most 10% of control; inactive = the rest.

System: SW 1271 complex tumor spheroid viability
Test: Anticancer human tumor SW 1271 cell line growth inhibition;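 for IC50: spheroids exposed to agents for seven days before readout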;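 for viability, T/C: spheroids exposed to agents for seven days before readout; percent of DMSO vehicle control luminescence so 100% = vehicle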
Settings: for viability, T/C: stronger effect = lower value
Method in brief: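 Single agents and combinations were tested on spheroids built from tumor cells plus HUVEC and hMSC, at half-log dilutions starting at or near clinical Cmax, else 10 microM; final DMSO 0.25% (v/v).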

[1] = curve of first compound, second compound 1 µM
[2] = curve of first compound, second compound 3.16 µM
[3] = curve of first compound, second compound 10 µM
[4] = curve of first compound, second compound 31.6 µM
[5] = curve of first compound, second compound 100 µM

Structure (SMILES): COc1ccc([C@@H](O)c2cc(-c3ncnc4cc(N5CCOCC5)ccc34)c(F)cc2Cl)nn1
viability, T/C (compound 0.0316 µM): 92.9% and 91.6% and 101% | viability, T/C (compound 0.1 µM): 93.1% and 83% and 92.6% | viability, T/C (compound 0.316 µM): 92.8% and 78.7% and 83.9% | outcome (compound 1 µM): inactive | viability, T/C (compound 1 µM): 77.2% and 72.9% | viability, T/C (compound 3.16 µM): 44.9% and 38.3% and 44% | viability, T/C (compound 10 µM): 8.13% and 13.3% and 6.11% | IC50 (curve of compound): 2630 nM and 1790 nM and 2520 nM

Structure (SMILES): Cn1ncnc1[C@H]1c2n[nH]c(=O)c3cc(F)cc(c23)N[C@@H]1c1ccc(F)cc1 + Cn1nnc2c(C(N)=O)ncn2c1=O
IC50 [1]: 9.72 nM | IC50 [2]: < 9.49 nM | IC50 [3]: < 9.49 nM | IC50 [4]: < 9.49 nM | IC50 [5]: < 9.49 nM | viability, T/C (second compound 1 µM, first compound 0.00949 µM): 50.5% | viability, T/C (second compound 1 µM, first compound 0.03 µM): 28.1% | viability, T/C (second compound 1 µM, first compound 0.0949 µM): 23.4% | viability, T/C (second compound 1 µM, first compound 0.3 µM): 26.2% | viability, T/C (second compound 1 µM, first compound 0.949 µM): 25.8% | viability, T/C (second compound 1 µM, first compound 3 µM): 20.7% | viability, T/C (second compound 3.16 µM, first compound 0.00949 µM): 41.6% | viability, T/C (second compound 3.16 µM, first compound 0.03 µM): 25.2% | viability, T/C (second compound 3.16 µM, first compound 0.0949 µM): 29.2% | viability, T/C (second compound 3.16 µM, first compound 0.3 µM): 22.1% | viability, T/C (second compound 3.16 µM, first compound 0.949 µM): 28.2% | viability, T/C (second compound 3.16 µM, first compound 3 µM): 22% | viability, T/C (second compound 10 µM, first compound 0.00949 µM): 32.9% | viability, T/C (second compound 10 µM, first compound 0.03 µM): 25.5% | viability, T/C (second compound 10 µM, first compound 0.0949 µM): 25.6% | viability, T/C (second compound 10 µM, first compound 0.3 µM): 28.6% | viability, T/C (second compound 10 µM, first compound 0.949 µM): 29.5% | viability, T/C (second compound 10 µM, first compound 3 µM): 20.1% | viability, T/C (second compound 31.6 µM, first compound 0.00949 µM): 27.1% | viability, T/C (second compound 31.6 µM, first compound 0.03 µM): 27.1% | viability, T/C (second compound 31.6 µM, first compound 0.0949 µM): 29.3% | viability, T/C (second compound 31.6 µM, first compound 0.3 µM): 28.5% | viability, T/C (second compound 31.6 µM, first compound 0.949 µM): 30.5% | viability, T/C (second compound 31.6 µM, first compound 3 µM): 22% | viability, T/C (second compound 100 µM, first compound 0.00949 µM): 29.8% | viability, T/C (second compound 100 µM, first compound 0.03 µM): 29.9% | viability, T/C (second compound 100 µM, first compound 0.0949 µM): 32.1% | viability, T/C (second compound 100 µM, first compound 0.3 µM): 32.8% | viability, T/C (second compound 100 µM, first compound 0.949 µM): 28.7% | viability, T/C (second compound 100 µM, first compound 3 µM): 19.9%

Structure (SMILES): COc1ccc([C@@H](O)c2cc(-c3ncnc4cc(N5CCOCC5)ccc34)c(F)cc2Cl)nn1 + Cn1nnc2c(C(N)=O)ncn2c1=O
IC50 [1]: 799 nM | IC50 [2]: 1520 nM | IC50 [3]: 1810 nM | IC50 [4]: 1410 nM | IC50 [5]: 808 nM | viability, T/C (second compound 1 µM, first compound 0.0316 µM): 95.7% | viability, T/C (second compound 1 µM, first compound 0.1 µM): 89.6% | viability, T/C (second compound 1 µM, first compound 0.316 µM): 91.7% | viability, T/C (second compound 1 µM, first compound 1 µM): 39.6% | viability, T/C (second compound 1 µM, first compound 3.16 µM): 38.3% | viability, T/C (second compound 1 µM, first compound 10 µM): 11% | viability, T/C (second compound 3.16 µM, first compound 0.0316 µM): 115% | viability, T/C (second compound 3.16 µM, first compound 0.1 µM): 97.8% | viability, T/C (second compound 3.16 µM, first compound 0.316 µM): 82.5% | viability, T/C (second compound 3.16 µM, first compound 1 µM): 60.7% | viability, T/C (second compound 3.16 µM, first compound 3.16 µM): 32.3% | viability, T/C (second compound 3.16 µM, first compound 10 µM): 10% | viability, T/C (second compound 10 µM, first compound 0.0316 µM): 97.1% | viability, T/C (second compound 10 µM, first compound 0.1 µM): 103% | viability, T/C (second compound 10 µM, first compound 0.316 µM): 85.2% | viability, T/C (second compound 10 µM, first compound 1 µM): 65.1% | viability, T/C (second compound 10 µM, first compound 3.16 µM): 36.2% | viability, T/C (second compound 10 µM, first compound 10 µM): 10.9% | viability, T/C (second compound 31.6 µM, first compound 0.0316 µM): 101% | viability, T/C (second compound 31.6 µM, first compound 0.1 µM): 96.2% | viability, T/C (second compound 31.6 µM, first compound 0.316 µM): 93.4% | viability, T/C (second compound 31.6 µM, first compound 1 µM): 55.6% | viability, T/C (second compound 31.6 µM, first compound 3.16 µM): 30.3% | viability, T/C (second compound 31.6 µM, first compound 10 µM): 10.2% | viability, T/C (second compound 100 µM, first compound 0.0316 µM): 83.8% | viability, T/C (second compound 100 µM, first compound 0.1 µM): 82.3% | viability, T/C (second compound 100 µM, first compound 0.316 µM): 66.8% | viability, T/C (second compound 100 µM, first compound 1 µM): 42.9% | viability, T/C (second compound 100 µM, first compound 3.16 µM): 28.6% | viability, T/C (second compound 100 µM, first compound 10 µM): 9.15%

Structure (SMILES): COc1cc2c(cc1O)CCNC21CSC2c3c(OC(C)=O)c(C)c4c(c3C(COC1=O)N1C(O)C3Cc5cc(C)c(OC)c(O)c5C(C21)N3C)OCO4 (centres undefined)
viability, T/C (compound 30 pM): 89.8% [middle of 10 runs] | viability, T/C (compound 94.9 pM): 64.2% [middle of 10 runs] | viability, T/C (compound 0.0003 µM): 34.4% [middle of 10 runs] | viability, T/C (compound 0.000949 µM): 3.63% [middle of 10 runs] | viability, T/C (compound 0.003 µM): 0.11% [middle of 6 runs] | IC50 (compound alone, run of 12/16/2019): 0.156 nM [middle of 10 runs]

Structure (SMILES): [2H]c1nc(C)nc([2H])c1-c1cc(NC[C@@H](C)c2cccc3c(C(=O)NC)ccnc23)ncn1 + COc1cc2c(cc1O)CCNC21CSC2c3c(OC(C)=O)c(C)c4c(c3C(COC1=O)N1C(O)C3Cc5cc(C)c(OC)c(O)c5C(C21)N3C)OCO4
IC50 (curve of first compound, second compound 30 pM): > 10000 nM | IC50 (curve of first compound, second compound 94.9 pM): > 10000 nM | IC50 (curve of first compound, second compound 0.0003 µM): < 31.6 nM | IC50 (curve of first compound, second compound 0.000949 µM): < 31.6 nM | IC50 (curve of first compound, second compound 0.003 µM): < 31.6 nM | viability, T/C (second compound 30 pM, first compound 0.0316 µM): 104% | viability, T/C (second compound 30 pM, first compound 0.1 µM): 93.9% | viability, T/C (second compound 30 pM, first compound 0.316 µM): 98.7% | viability, T/C (second compound 30 pM, first compound 1 µM): 96.4% | viability, T/C (second compound 30 pM, first compound 3.16 µM): 93.4% | viability, T/C (second compound 30 pM, first compound 10 µM): 90.1% | viability, T/C (second compound 94.9 pM, first compound 0.0316 µM): 60.4% | viability, T/C (second compound 94.9 pM, first compound 0.1 µM): 68.6% | viability, T/C (second compound 94.9 pM, first compound 0.316 µM): 75.6% | viability, T/C (second compound 94.9 pM, first compound 1 µM): 69.9% | viability, T/C (second compound 94.9 pM, first compound 3.16 µM): 63.4% | viability, T/C (second compound 94.9 pM, first compound 10 µM): 51.7% | viability, T/C (second compound 0.0003 µM, first compound 0.0316 µM): 33.1% | viability, T/C (second compound 0.0003 µM, first compound 0.1 µM): 35.1% | viability, T/C (second compound 0.0003 µM, first compound 0.316 µM): 33.4% | viability, T/C (second compound 0.0003 µM, first compound 1 µM): 30.1% | viability, T/C (second compound 0.0003 µM, first compound 3.16 µM): 34.2% | viability, T/C (second compound 0.0003 µM, first compound 10 µM): 31.6% | viability, T/C (second compound 0.000949 µM, first compound 0.0316 µM): 10.5% | viability, T/C (second compound 0.000949 µM, first compound 0.1 µM): 4.86% | viability, T/C (second compound 0.000949 µM, first compound 0.316 µM): 4.58% | viability, T/C (second compound 0.000949 µM, first compound 1 µM): 3.72% | viability, T/C (second compound 0.000949 µM, first compound 3.16 µM): 2.73% | viability, T/C (second compound 0.000949 µM, first compound 10 µM): 1.89% | viability, T/C (second compound 0.003 µM, first compound 0.0316 µM): 0.1% | viability, T/C (second compound 0.003 µM, first compound 0.1 µM): 0.09% | viability, T/C (second compound 0.003 µM, first compound 0.316 µM): 0.1% | viability, T/C (second compound 0.003 µM, first compound 1 µM): 0.09% | viability, T/C (second compound 0.003 µM, first compound 3.16 µM): 0.09% | viability, T/C (second compound 0.003 µM, first compound 10 µM): 0.17%

Structure (SMILES): Cc1sc2c(c1C)C(c1ccc(Cl)cc1)=NC(CC(=O)Nc1ccc(O)cc1)c1nnc(C)n1-2 (centres undefined)
viability, T/C (compound 0.00949 µM): 112% and 133% and 111% | viability, T/C (compound 0.03 µM): 98.6% and 108% and 112% | viability, T/C (compound 0.0949 µM): 38.7% and 40.3% and 67.7% | viability, T/C (compound 0.3 µM): 4.84% and 5.32% and 10.5% | viability, T/C (compound 0.949 µM): 1.98% and 1.57% and 1.36% | viability, T/C (compound 3 µM): 1.53% and 0.84% and 1.11% | IC50 (curve of compound): 76.2 nM and 80.2 nM and 136 nM

IC50 (compound alone, run of 11/07/2019): > 100000 nM and 20700 nM
Structure (SMILES): Cn1nnc2c(C(N)=O)ncn2c1=O
viability, T/C (compound 1 µM): 97% [middle of 10 runs] | viability, T/C (compound 3.16 µM): 103% [middle of 10 runs]
